Measured values reported in patent US9113629B2, “4-amino-6-(4-substituted-phenyl)-picolinates and 6-amino-2-(4-substituted-phenyl)-pyrimidine-4-carboxylates and their use as herbicides” (DOW AGROSCIENCES LLC, priority 2013, dated 2015).
Read-outs that look alike come from different tables or passages of the source.

Key:
[1] = system: Key Broadleaf Weed and Crop Species; assay: Post-emergent Test II herbicidal activity (Table 5); type: in vivo; settings: post-emergence, 336 h, 14 days after application; for pest or weed control at 70 g/ha: application rate 70 g ai/ha; for pest or weed control at 140 g/ha: application rate 140 g ai/ha
How it was run: (§1)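 Spray rates: a highest rate plus ½×, ¼×, ⅛×, 1/16×, all delivered at 187 L/ha to plants at the first–second true leaf stage. Readout is a visual percent injury score at 14 d, where 100 means complete kill.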

[2] = system: Key Grass and Sedge Weeds as well as Grass Crops; assay: Post-emergent Test II herbicidal activity (Table 6); type: in vivo; settings: post-emergence, 336 h; for pest or weed control at 70 g/ha: 70 g ai/ha; for pest or weed control at 140 g/ha: 140 g ai/ha
How it was run: as §1

[3] = ABUTH: velvetleaf (Abutilon theophrasti), read-out: Visual Growth Reduction (%) 14 Days After Application, ABUTH
[4] = AMARE: redroot pigweed (Amaranthus retroflexus), read-out: Visual Growth Reduction (%) 14 Days After Application, AMARE
[5] = BRSNN: oilseed-rape, canola (Brassica napus), read-out: Visual Growth Reduction (%) 14 Days After Application, BRSNN
[6] = CHEAL: lambsquarters (Chenopodium album), read-out: Visual Growth Reduction (%) 14 Days After Application, CHEAL
[7] = EPHHL: wild poinsettia (Euphorbia heterophylla), read-out: Visual Growth Reduction (%) 14 Days After Application, EPHHL
[8] = HELAN: sunflower (Helianthus annuus), read-out: Visual Growth Reduction (%) 14 Days After Application, HELAN
[9] = VIOTR: wild pansy (Viola tricolor), read-out: Visual Growth Reduction (%) 14 Days After Application, VIOTR
[10] = CYPES: yellow nutsedge (Cyperus esculentus), read-out: Visual Growth Reduction (%) 14 Days After Application, CYPES
[11] = DIGSA: crabgrass (Digitaria sanguinalis), read-out: Visual Growth Reduction (%) 14 Days After Application, DIGSA
[12] = ECHCG: barnyardgrass (Echinochloa crus-galli), read-out: Visual Growth Reduction (%) 14 Days After Application, ECHCG
[13] = ORYSA: rice (Oryza sativa), crop, read-out: Visual Growth Reduction (%) 14 Days After Application, ORYSA
[14] = SETFA: giant foxtail (Setaria faberi), read-out: Visual Growth Reduction (%) 14 Days After Application, SETFA
[15] = SORVU: grain sorghum (Sorghum vulgare), read-out: Visual Growth Reduction (%) 14 Days After Application, SORVU
[16] = TRZSS (wheat, Triticum aestivum), crop, read-out: Visual Growth Reduction (%) 14 Days After Application, TRZSS
[17] = ZEAMX: maize, corn (Zea mays), crop, read-out: Visual Growth Reduction (%) 14 Days After Application, ZEAMX

Structure (SMILES) | pest or weed control at 70 g/ha [1, 3] | pest or weed control at 140 g/ha [1, 3] | pest or weed control at 70 g/ha [1, 4] | pest or weed control at 140 g/ha [1, 4] | pest or weed control at 70 g/ha [1, 5] | pest or weed control at 140 g/ha [1, 5] | pest or weed control at 70 g/ha [1, 6] | pest or weed control at 140 g/ha [1, 6] | pest or weed control at 70 g/ha [1, 7] | pest or weed control at 140 g/ha [1, 7] | pest or weed control at 70 g/ha [1, 8] | pest or weed control at 140 g/ha [1, 8] | pest or weed control at 70 g/ha [1, 9] | pest or weed control at 140 g/ha [1, 9] | pest or weed control at 70 g/ha [2, 10] | pest or weed control at 140 g/ha [2, 10] | pest or weed control at 70 g/ha [2, 11] | pest or weed control at 140 g/ha [2, 11] | pest or weed control at 70 g/ha [2, 12] | pest or weed control at 140 g/ha [2, 12] | other results
C#Cc1ccc(-c2nc(C(=O)O)c(Cl)c(N)c2F)cc1F [Compound 71] | 0 to 29% | 45 to 59% | 60 to 74% | 75 to 84% | 45 to 59% | 45 to 59% | 85 to 94% | 85 to 94% | 95 to 100% | 95 to 100% | 60 to 74% | 75 to 84% | 0 to 29% | 0 to 29% | 0 to 29% | 0 to 29% | 60 to 74% | 45 to 59% | 85 to 94% | 85 to 94% | pest or weed control at 70 g/ha [2, 13]: 0 to 29%; pest or weed control at 140 g/ha [2, 13]: 0 to 29%; pest or weed control at 70 g/ha [2, 14]: 60 to 74%; pest or weed control at 140 g/ha [2, 14]: 60 to 74%; pest or weed control at 70 g/ha [2, 15]: 30 to 44%; pest or weed control at 140 g/ha [2, 15]: 45 to 59%; pest or weed control at 70 g/ha [2, 16]: 30 to 44%; pest or weed control at 140 g/ha [2, 16]: 45 to 59%; pest or weed control at 70 g/ha [2, 17]: 95 to 100%; pest or weed control at 140 g/ha [2, 17]: 95 to 100%; melting point: 157 to 160 °C (dec.)
COc1c(N)nc(-c2ccc(I)cc2F)nc1C(=O)O [Compound 72] | 85 to 94% | 85 to 94% | 95 to 100% | 95 to 100% | 85 to 94% | 85 to 94% | 95 to 100% | 95 to 100% | 95 to 100% | 95 to 100% | 95 to 100% | 95 to 100% | 60 to 74% | 60 to 74% | 0 to 29% | 95 to 100% | 45 to 59% | 60 to 74% | 95 to 100% | 95 to 100% | pest or weed control at 70 g/ha [2, 13]: 0 to 29%; pest or weed control at 140 g/ha [2, 13]: 0 to 29%; pest or weed control at 70 g/ha [2, 14]: 45 to 59%; pest or weed control at 140 g/ha [2, 14]: 75 to 84%; pest or weed control at 70 g/ha [2, 15]: 85 to 94%; pest or weed control at 140 g/ha [2, 15]: 95 to 100%; pest or weed control at 70 g/ha [2, 16]: 60 to 74%; pest or weed control at 140 g/ha [2, 16]: 60 to 74%; pest or weed control at 70 g/ha [2, 17]: 60 to 74%; pest or weed control at 140 g/ha [2, 17]: 60 to 74%; melting point: 95 to 98 °C
COC(=O)c1nc(-c2ccc(I)cc2F)nc(N)c1OC [Compound 82] | 95 to 100% | 95 to 100% | 95 to 100% | 95 to 100% | 85 to 94% | 85 to 94% | 85 to 94% | 95 to 100% | 95 to 100% | 95 to 100% | 95 to 100% | 95 to 100% | 60 to 74% | 75 to 84% | 95 to 100% | 95 to 100% | 0 to 29% | 0 to 29% | 45 to 59% | 85 to 94% | pest or weed control at 70 g/ha [2, 13]: 0 to 29%; pest or weed control at 140 g/ha [2, 13]: 0 to 29%; pest or weed control at 70 g/ha [2, 14]: 0 to 29%; pest or weed control at 140 g/ha [2, 14]: 0 to 29%; pest or weed control at 70 g/ha [2, 15]: 0 to 29%; pest or weed control at 140 g/ha [2, 15]: 45 to 59%; pest or weed control at 70 g/ha [2, 16]: 30 to 44%; pest or weed control at 140 g/ha [2, 16]: 30 to 44%; pest or weed control at 70 g/ha [2, 17]: 95 to 100%; pest or weed control at 140 g/ha [2, 17]: 95 to 100%; melting point: 159 to 162 °C
